The values that follow come from ChEMBL document CHEMBL1150976, “The selectivity of protein kinase inhibitors: a further update” (Biochem J, 2007).

In assay [1] the target is Calcium/calmodulin-dependent protein kinase kinase 2 (Homo sapiens) (UniProt Q96RR4). The assay can be described thus: Percentage CaMKKbeta activity remaining in the presence of 3uM inhibitor. Particulars: filed as antagonist.
The target of assay [2] is T1, Dual specificity tyrosine-phosphorylation-regulated kinase 2 (Homo sapiens) (UniProt Q92630).
T1 sequence (whole entry): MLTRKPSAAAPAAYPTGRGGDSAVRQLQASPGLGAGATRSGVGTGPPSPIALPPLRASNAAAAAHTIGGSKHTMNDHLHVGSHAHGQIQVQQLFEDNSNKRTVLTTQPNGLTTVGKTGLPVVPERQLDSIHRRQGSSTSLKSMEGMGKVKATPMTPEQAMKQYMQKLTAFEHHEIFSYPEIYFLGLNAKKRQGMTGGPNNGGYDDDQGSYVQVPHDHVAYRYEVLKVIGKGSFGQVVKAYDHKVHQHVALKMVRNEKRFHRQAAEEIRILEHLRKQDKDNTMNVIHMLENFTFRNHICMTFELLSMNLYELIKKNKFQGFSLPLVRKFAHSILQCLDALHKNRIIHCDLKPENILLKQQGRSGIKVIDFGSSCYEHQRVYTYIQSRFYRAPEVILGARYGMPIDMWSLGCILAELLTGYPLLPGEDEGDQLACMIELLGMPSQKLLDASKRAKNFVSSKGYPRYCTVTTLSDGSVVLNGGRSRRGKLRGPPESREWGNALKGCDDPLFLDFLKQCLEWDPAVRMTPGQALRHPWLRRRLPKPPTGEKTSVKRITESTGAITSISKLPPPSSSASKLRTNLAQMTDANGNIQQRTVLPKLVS
The assay can be described thus: Percentage DYRK2 activity remaining in the presence of 3uM inhibitor.

The target in assay [3] is Dual specificity tyrosine-phosphorylation-regulated kinase 1A (Homo sapiens) (UniProt Q13627). The assay can be described thus: Percentage DYRK1A activity remaining in the presence of 3uM inhibitor.
Assay [4] has as its target RAC-alpha serine/threonine-protein kinase (Homo sapiens) (UniProt P31749). Description: Percentage PKBalpha activity remaining in the presence of 3uM inhibitor.
Assay [5] deals with Ribosomal protein S6 kinase alpha-5 (Homo sapiens) (UniProt O75582). Description: Percentage MSK1 activity remaining in the presence of 3uM inhibitor.
Assay [6] concerns the target Mitogen-activated protein kinase 14 (Homo sapiens, UniProt Q16539). The assay can be described thus: Percentage p38alpha activity remaining in the presence of 3uM inhibitor.
Assay [7] has as its target Proto-oncogene tyrosine-protein kinase LCK (Mus musculus) (UniProt P06240). The assay can be described thus: Percentage Lck activity remaining in the presence of 2uM inhibitor.
The target in assay [8] is T2, MAP kinase-activated protein kinase 5 (Homo sapiens) (UniProt Q8IW41).
T2 sequence (whole entry): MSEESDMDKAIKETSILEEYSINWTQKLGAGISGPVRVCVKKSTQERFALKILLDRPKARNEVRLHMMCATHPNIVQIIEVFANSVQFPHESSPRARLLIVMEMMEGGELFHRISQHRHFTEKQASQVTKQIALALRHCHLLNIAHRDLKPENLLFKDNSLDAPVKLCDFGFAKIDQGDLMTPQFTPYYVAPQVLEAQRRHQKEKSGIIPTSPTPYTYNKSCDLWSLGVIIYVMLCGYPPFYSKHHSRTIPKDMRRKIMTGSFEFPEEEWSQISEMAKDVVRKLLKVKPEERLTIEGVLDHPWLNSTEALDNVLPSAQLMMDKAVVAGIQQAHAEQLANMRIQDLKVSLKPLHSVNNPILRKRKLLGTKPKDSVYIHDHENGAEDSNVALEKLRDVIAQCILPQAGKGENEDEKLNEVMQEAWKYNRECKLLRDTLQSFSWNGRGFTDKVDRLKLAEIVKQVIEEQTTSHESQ
The assay can be described thus: Percentage PRAK activity remaining in the presence of 2uM inhibitor.

Assay [9] has as its target Calcium/calmodulin-dependent protein kinase type 1 (Homo sapiens) (UniProt Q14012). The assay can be described thus: Percentage CaMK1 activity remaining in the presence of 2uM inhibitor.
Assay [10] addresses MAP kinase-activated protein kinase 3 (Homo sapiens) (UniProt Q16644). Description: Percentage MAPKAPK3 activity remaining in the presence of 2uM inhibitor.
Assay [11] concerns the target Serine/threonine-protein kinase PAK 5 (Homo sapiens) (UniProt Q9P286). The assay can be described thus: Percentage PAK5 activity remaining in the presence of 2uM inhibitor.
In assay [12] the target is T3, Serine/threonine-protein kinase Sgk1 (Homo sapiens) (UniProt O00141).
T3 sequence (whole entry): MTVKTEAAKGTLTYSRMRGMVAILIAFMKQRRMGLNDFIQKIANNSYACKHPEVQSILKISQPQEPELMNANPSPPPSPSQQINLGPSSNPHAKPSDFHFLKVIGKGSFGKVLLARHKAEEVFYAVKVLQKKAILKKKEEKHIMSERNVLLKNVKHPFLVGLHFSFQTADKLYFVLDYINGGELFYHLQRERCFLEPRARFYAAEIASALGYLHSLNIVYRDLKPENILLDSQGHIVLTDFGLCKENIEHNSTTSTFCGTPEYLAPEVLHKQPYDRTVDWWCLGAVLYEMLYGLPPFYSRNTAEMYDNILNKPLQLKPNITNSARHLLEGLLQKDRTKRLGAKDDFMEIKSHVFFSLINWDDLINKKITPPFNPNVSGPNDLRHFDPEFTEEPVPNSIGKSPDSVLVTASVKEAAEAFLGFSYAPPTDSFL
The assay can be described thus: Percentage SGK1 activity remaining in the presence of 2uM inhibitor.

Assay [13] has as its target Calcium/calmodulin-dependent protein kinase kinase 1 (Homo sapiens) (UniProt Q8N5S9). The assay can be described thus: Percentage CaMKKalpha activity remaining in the presence of 2uM inhibitor.
Assay [14] addresses MAP/microtubule affinity-regulating kinase 3 (Homo sapiens) (UniProt P27448). The assay can be described thus: Percentage MARK3 activity remaining in the presence of 2uM inhibitor.
Assay [15] concerns the target Rho-associated protein kinase 2 (Homo sapiens) (UniProt O75116). Description: Percentage ROCK2 activity remaining in the presence of 2uM inhibitor.
Assay [16] concerns the target T4, 3-phosphoinositide-dependent protein kinase 1 (Homo sapiens) (UniProt O15530).
T4 sequence (whole entry): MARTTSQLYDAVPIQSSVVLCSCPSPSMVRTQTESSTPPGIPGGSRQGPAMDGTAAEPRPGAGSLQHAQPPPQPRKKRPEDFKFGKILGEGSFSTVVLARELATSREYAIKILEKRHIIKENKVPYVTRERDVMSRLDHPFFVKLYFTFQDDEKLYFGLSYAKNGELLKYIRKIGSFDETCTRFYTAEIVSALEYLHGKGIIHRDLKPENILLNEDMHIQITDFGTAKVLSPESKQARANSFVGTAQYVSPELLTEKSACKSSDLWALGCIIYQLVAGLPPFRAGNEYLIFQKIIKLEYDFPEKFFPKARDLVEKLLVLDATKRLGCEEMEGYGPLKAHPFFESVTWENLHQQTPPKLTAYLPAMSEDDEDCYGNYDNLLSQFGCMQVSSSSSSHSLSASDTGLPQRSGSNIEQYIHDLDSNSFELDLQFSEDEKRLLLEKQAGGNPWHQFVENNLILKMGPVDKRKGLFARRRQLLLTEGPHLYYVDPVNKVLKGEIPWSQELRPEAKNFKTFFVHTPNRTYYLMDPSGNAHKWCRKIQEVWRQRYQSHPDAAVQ
The assay can be described thus: Percentage PDK1 activity remaining in the presence of 25uM inhibitor.

Calcium/calmodulin-dependent protein kinase kinase 1 (Homo sapiens), sequence (Q8N5S9 whole entry, looked up): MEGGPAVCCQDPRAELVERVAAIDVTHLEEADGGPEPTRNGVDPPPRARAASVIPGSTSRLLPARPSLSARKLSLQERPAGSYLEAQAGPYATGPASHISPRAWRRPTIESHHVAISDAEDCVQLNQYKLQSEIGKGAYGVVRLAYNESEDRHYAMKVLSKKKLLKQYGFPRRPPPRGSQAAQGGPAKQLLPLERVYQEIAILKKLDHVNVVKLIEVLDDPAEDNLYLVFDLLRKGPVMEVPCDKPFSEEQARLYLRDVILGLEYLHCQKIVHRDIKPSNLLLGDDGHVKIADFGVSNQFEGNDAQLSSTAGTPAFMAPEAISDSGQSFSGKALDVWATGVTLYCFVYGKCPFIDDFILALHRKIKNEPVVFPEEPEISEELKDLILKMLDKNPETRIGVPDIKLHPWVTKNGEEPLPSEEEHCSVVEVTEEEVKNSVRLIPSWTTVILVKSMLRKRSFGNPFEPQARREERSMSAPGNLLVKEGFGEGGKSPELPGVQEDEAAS
Rho-associated protein kinase 2 (Homo sapiens), sequence (O75116 whole entry, looked up): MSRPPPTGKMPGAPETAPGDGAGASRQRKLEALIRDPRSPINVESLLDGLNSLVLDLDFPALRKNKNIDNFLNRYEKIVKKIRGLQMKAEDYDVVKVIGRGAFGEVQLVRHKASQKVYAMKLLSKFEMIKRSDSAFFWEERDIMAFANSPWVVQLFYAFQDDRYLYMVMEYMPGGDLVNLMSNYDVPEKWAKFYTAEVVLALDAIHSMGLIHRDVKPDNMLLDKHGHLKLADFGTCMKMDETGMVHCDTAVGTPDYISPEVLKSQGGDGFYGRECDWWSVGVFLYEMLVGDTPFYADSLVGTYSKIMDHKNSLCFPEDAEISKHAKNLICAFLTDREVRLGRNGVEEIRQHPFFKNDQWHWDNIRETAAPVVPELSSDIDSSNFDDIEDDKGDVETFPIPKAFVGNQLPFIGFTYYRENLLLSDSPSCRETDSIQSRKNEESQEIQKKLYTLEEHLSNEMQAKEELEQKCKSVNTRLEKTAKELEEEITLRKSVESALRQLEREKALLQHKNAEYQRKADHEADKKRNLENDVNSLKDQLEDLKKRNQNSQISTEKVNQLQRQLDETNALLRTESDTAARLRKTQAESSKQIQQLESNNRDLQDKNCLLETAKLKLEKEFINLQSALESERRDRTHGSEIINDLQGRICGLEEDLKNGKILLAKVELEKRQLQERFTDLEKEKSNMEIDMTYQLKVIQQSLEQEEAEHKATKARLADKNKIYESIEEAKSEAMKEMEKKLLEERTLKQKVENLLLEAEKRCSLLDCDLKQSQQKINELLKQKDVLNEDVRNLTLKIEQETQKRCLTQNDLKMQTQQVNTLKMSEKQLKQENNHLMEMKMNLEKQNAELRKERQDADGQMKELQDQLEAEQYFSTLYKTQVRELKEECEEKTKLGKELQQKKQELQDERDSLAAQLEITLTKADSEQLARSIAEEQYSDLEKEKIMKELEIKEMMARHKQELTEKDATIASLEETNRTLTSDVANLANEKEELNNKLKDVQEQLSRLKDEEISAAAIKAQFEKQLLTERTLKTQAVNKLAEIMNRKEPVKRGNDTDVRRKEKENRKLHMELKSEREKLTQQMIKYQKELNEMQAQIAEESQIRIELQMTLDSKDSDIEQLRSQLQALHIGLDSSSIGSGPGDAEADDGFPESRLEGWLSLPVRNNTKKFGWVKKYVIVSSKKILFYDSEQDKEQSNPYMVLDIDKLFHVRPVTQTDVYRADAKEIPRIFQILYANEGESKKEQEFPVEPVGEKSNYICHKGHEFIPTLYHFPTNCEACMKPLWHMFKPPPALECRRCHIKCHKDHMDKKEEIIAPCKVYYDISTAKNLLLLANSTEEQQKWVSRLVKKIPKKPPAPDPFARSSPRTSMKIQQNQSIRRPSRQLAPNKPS
MAP kinase-activated protein kinase 3 (Homo sapiens), sequence (Q16644 whole entry, looked up): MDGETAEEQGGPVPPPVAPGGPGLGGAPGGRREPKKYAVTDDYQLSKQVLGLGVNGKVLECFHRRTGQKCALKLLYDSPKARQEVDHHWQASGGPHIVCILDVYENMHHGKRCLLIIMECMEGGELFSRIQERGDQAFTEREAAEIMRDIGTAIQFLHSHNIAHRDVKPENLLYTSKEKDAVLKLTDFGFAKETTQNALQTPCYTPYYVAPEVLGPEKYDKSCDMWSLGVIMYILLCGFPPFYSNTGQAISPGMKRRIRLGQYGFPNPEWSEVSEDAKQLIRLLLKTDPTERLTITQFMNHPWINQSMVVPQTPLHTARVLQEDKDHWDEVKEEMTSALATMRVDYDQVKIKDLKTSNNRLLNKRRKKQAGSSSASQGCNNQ
Serine/threonine-protein kinase PAK 5 (Homo sapiens), sequence (Q9P286 whole entry, looked up): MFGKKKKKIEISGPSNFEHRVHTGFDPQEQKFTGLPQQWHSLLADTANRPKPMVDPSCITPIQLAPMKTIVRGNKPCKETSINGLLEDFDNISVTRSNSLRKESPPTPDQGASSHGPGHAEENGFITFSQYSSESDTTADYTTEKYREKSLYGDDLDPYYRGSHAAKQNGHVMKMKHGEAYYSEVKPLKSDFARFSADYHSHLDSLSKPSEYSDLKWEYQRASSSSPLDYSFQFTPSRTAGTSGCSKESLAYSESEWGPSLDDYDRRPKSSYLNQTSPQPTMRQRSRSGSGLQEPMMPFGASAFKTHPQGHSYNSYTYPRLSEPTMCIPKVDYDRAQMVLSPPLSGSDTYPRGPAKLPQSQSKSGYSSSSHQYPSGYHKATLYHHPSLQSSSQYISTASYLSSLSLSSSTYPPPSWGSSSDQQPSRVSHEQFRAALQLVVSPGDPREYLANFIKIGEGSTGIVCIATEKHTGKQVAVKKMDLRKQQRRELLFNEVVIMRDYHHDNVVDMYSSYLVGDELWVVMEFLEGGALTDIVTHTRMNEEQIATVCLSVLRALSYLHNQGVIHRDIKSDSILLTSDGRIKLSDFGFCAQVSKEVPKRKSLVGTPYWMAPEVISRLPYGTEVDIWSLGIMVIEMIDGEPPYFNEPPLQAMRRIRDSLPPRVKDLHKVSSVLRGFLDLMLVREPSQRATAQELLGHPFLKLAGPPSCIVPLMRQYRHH
Calcium/calmodulin-dependent protein kinase kinase 2 (Homo sapiens), sequence (Q96RR4 2-588 limits assumed): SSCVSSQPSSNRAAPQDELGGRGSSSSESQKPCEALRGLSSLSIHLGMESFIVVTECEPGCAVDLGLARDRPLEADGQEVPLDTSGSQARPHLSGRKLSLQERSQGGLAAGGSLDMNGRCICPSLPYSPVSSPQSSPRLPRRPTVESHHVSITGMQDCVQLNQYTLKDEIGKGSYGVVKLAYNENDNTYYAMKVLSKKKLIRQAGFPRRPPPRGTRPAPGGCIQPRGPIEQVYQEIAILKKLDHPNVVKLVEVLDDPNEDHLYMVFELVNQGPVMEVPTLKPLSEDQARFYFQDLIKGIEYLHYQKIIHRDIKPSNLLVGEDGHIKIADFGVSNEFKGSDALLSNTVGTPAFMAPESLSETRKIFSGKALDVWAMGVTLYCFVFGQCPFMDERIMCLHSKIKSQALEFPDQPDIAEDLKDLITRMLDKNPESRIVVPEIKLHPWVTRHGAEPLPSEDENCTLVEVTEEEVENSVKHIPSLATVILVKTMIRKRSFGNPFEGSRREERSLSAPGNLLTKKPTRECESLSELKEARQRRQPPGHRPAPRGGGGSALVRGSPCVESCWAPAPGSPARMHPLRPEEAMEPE
Calcium/calmodulin-dependent protein kinase type 1 (Homo sapiens), sequence (Q14012 whole entry, looked up): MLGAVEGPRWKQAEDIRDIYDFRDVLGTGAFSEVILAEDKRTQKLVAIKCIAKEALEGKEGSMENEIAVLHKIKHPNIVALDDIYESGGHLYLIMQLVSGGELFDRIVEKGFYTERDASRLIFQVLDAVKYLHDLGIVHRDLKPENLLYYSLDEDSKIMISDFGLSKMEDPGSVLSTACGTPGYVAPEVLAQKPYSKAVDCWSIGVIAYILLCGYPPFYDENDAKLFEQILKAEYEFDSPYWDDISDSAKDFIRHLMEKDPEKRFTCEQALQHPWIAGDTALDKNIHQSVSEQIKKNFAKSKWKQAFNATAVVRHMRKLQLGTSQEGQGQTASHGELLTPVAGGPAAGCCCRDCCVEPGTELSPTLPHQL
MAP/microtubule affinity-regulating kinase 3 (Homo sapiens), sequence (P27448 whole entry, looked up): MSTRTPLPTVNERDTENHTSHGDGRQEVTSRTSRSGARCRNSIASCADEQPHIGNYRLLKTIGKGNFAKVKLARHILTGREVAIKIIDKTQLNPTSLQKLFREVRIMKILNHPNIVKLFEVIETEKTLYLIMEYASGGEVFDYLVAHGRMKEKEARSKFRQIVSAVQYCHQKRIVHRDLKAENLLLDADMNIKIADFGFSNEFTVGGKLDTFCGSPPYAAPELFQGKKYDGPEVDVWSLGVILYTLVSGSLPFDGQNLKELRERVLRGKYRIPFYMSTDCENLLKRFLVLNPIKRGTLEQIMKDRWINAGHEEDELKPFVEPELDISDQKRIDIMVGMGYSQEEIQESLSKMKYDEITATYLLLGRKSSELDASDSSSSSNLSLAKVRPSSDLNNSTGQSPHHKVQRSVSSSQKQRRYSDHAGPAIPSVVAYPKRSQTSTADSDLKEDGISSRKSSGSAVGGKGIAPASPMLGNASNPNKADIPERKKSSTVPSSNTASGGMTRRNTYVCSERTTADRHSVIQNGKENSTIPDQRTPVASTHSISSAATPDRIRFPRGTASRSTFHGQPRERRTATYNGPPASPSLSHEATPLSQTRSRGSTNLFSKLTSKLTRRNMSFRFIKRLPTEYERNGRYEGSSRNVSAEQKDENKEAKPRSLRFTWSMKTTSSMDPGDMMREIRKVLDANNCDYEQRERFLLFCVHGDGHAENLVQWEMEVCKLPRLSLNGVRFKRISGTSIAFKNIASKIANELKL

Turning to `Cc1ccc(-c2c(C(=O)CF)n(CCCO)c3ncnc(N)c23)cc1`, the Activity in assay [1] was 49%; in [2] it was 91%; in assay [3], 86%; in assay [4], 82%; in assay [5], 75%; in [6], 72%.

Take `Cn1cc(C2=C(c3ccc(Cl)cc3Cl)C(=O)NC2=O)c2ccccc21`: the Activity in assay [7] is 77%; in assay [8], 90%; in assay [9], 96%; in [10] it was 103%; in assay [11] it was 85%; in [12], 100%. Moreover, the results for the Activity in [13], in [14] and in [15] were 85%, 76% and 101%, respectively.

With `NCCNS(=O)(=O)c1ccc(Cl)c2ccncc12`, in assay [16], the Activity was determined as 83%.
